Laboratory results as given in patent EP4813463A2, “TYK2 INHIBITORS AND COMPOSITIONS AND METHODS THEREOF” (Lynk Pharmaceuticals Co. Ltd., priority 2023, dated 2024).
pIC50: −log10 of the molar value.

Experiments:
[1] = test system: Caco-2 cell lines; assay: Caco-2 cell permeability; format: in vitro ADME; details: Caco-2; result in words
Method: Compounds permeability was evaluated using Caco-2 cell lines. HBSS buffer was used as transfer buffer. Appropriate dosing and receiver solutions were applied to the donor and receiver chambers to initiate the transport assay in apical to basolateral (A to B) or basolateral to apical (B to A) directions. Compounds were tested at 10.0 µM in the absence of p-gp inhibitor bidirectionally in duplicates. After incubation at 37°C for 90 mins, donor and receiver samples were analyzed by LC-MS/MS. The intestinal absorption potential was assessed using Papp value and efflux ratio.

[2] = test system: IFNa pSTAT1; assay: Phosphorylation of STAT1 inhibition in HMC3 cells with HTRF assay; format: cell-based; details: Homo sapiens, HMC3 microglia cells, 50ng/mL hINFα 1 hour, read-out: HTRF_HMC3 IC 50 (IFNa pSTAT1)
Method: Seeding HMC3 cells into 96-well plate and incubate overnight. Pre-stimulation with recombinant human IFNα (Sino biological, H08Y), treat cells with compound with different concentration for 1hr. After compound treatment, stimulate cells with 50ng/mL hINFα for another 1 hour (for CCF-STTG1 cells IFNα induction time is 30 mins). After compound treatment and cytokine stimulation, dump old medium and lyse cells with supplemented lysis buffer provided by the HTRF kit (Revvity, 63ADK026PEG) for 30 min at room temperature under shaking. After homogenization by pipetting up and down, transfer 16 µL of cell lysate from the 96-well cell-culture plate to a small volume white 384-well plate, and then add 4 µL of pre-mixed two ready-to-use antibody working solution into each wells. Cover the plate with a plate sealer and incubate it overnight at room temperature. Read the fluorescence emission at two different wavelengths (665nm and 620nm) on microplate reader (Molecular Device, SpectraMax i3X). Collect data and analyzed with GraphPad Prism.

[3] = Pharmacokinetic study in rats; format: in vivo; details: rat, plasma, Sprague-Dawley rats, solution
Method: Pharmacokinetic profiles of test articles were evaluated in fasted mouse, Sprague-Dawley rats and Beagle dogs. After dosing, blood samples were collected at each time point. For IV injection group, time points were set at 5, 15, 30 min, and then 1, 2, 4, 8 and 24 hours after dosing. For oral gavage group,#time points were set at 15, 30 min, and then 1, 2, 4, 8, and 24 hours. Blood was collected into appropriately labeled tubes containing K2EDTA as the anticoagulant. Plasma was obtained within 1 hours of blood collection by centrifugation at 8000×g and 4 °C for 6 minutes, and then stored at -20 °C until analyzed by LC/MS/MS for quantification. PK parameter values, including, but not necessarily limited to, the maximum plasma concentrations (Cmax), the time to reach the maximum concentrations (Tmax), and the area under the plasma concentration vs. time curve (AUC) from time zero to 24-hour (AUC0-24h) were determined using WinNonlin program. Table 17. […]

[4] = test system: IFNa pSTAT1; assay: Phosphorylation of STAT1 inhibition in CCF-STTG1 cells by Jess; format: cell-based; details: Homo sapiens, 0.5 h; CCF-STTG1 astrocyte cells, IFNα induction 30 mins, Jess western; read-out: Jess_CCF-STTG1 IC50 (IFNa pSTAT1)
Method: Seeding HMC3 cells into 12-well plate and incubate overnight. Pre-stimulation with recombinant human IFNα (Sino biological, H08Y), treat cells with compound with different concentration for 1hr. After compound treatment, stimulate HMC3 cells with 50ng/mL hINFα for another 1 hour (for CCF-STTG1 cells IFNα induction time is 30 mins). And then wash cells with DPBS once gently and lyse cells with pre-cooled RIPA buffer (Sigma, R0278-500ML) for 30min on ice to harvest cells. Centrifuge cell lysate for 20 mins at 12000rpm with freezer centrifuge (Thermo Scientific, Heraeus Fresco 21) to extract protein. Prepare samples with Jess Simple Wes kit (SM-WO04) and then run western blot on Jess simple western system (Protein simple, JS-4631). Collect data and analyzed with GraphPad Prism.

[5] = test system: TYK2 pathway; assay: IFN-γ release in NK92 cells stimulated by IL-12 (ELISA); format: cell-based; details: IL-12 2.5ng/mL stimulation 15hrs, IFN-γ in supernatant by ELISA
Method: IFN-γ Release in NK92 Cells Stimulated by IL-12
Purpose: To evaluate the inhibition activity of TYK2 inhibitors in NK92 cells on TYK2 pathway through ELISA method.
Procedure: 1) Seeding NK92 cells into 96-well plate, cell density is 1.5E5 cells/well, 100uL/well; 2)Add prepared test articles into indicated wells, 50uL/well, and continue incubate for 1h, at 37°C; 3) After compound treatment, add 50uL/well IL-12 into indicated wells, final concentration of IL-12 is 2.5ng/mL; 4)Incubate cytokine stimulated cells at 37°C for another 15hrs in CO2 incubator; 5) After cytokine stimulation, transfer culture supernatant into a new plate and centrifuge for 5min at 350x g, and detect IFN-γ concentration in the supernatant with ELISA kit; 6) Data analysis with GrapdPad Prism6.0 software. Table 5. IC50 Values of Exemplary Compounds on TYK2 Pathway

[6] = Brain pharmacokinetic studies in rats; format: in vivo, Sprague-Dawley rats; details: for half-life / Kp / AUC: rats, iv, 3 mg/kg, solution; for Kp: read-out: Brain AUC/Systemic AUC; for brain exposure in Rats: result in words
Method: Pharmacokinetic profiles of test articles were evaluated in fasted Sprague-Dawley rats. Different kinds of formulations were designed to ensure test articles fully dissolved and wouldn't precipitate in 1:10 SGF or FaSSIF dilution. Typically, Rats were dosed with 3 mg/kg and 5 mg/kg by intravenous injection and oral gavage, respectively. The animal was restrained manually at the designated time points, approximately 150 µL of blood sample was collected via jugular vein for serial bleeding into K2EDTA tubes. The blood samples were maintained in wet ice first and centrifuged to obtain plasma (2000g, 4°C, 5 min) within 30 minutes post sampling. Anesthetizing the rat with the Isoflurane vaporizer to 2%~3% and place its back on the operation table. Spread the animal limbs and pin the limbs on the operation table. Make a cut along the sternum about 4cm long, low enough to expose the sternum's end. Expose the heart and use a 25-gauge needle connected with a 20 mL syringe filled with 20 mL of cold saline to pierce the left ventricle. Maintain the placement of the needle, and slowly push the syringe plunger to wash the brain with saline. The perfusion will be finished within about 2 min and then take the brain out of the body carefully without damaging the tissue. Dry the tissue on filtrate paper, which should be placed on ice, and then weigh the brain tissue and store at -70 °C and analyzed by LC/MS/MS for quantification. PK parameter values, including, but not necessarily limited to, the maximum plasma concentrations (Cmax), and the area under the plasma concentration vs. time curve (AUC) from time zero to 24-hour (AUC0-24h) were determined using WinNonlin program. Table 13. Systemic Pharmacokinetic Parameters in Sprague-Dawley Rats

[7] = Sprague-Dawley, rat, systemic (plasma)
[8] = Sprague-Dawley, rat, systemic (plasma), read-out: AUC

COC(=O)c1cnc(NC(=O)[C@@H]2C[C@@H]2F)cc1Nc1nn(C)c2ccc(C(O)C(F)(F)F)c(OC)c12 (single isomer, unassigned) [Example 122A, Methyl 6-((1S,2S)-2-fluorocyclopropane-1-carboxamido)-4-((4-methoxy-1-methyl-5-((S*)-2,2,2-trifluoro-1-hydroxyethyl)-1H-indazol-3-yl)amino) nicotinate]
efflux ratio compared with the amide compounds 21,23,25,33,49A and BMS986165 [1]: lower efflux ratio numbers | pIC50 [2]: > 10.21

[2H]C([2H])([2H])NC(=O)c1cnc(NC(=O)C2CC2)cc1Nc1cnn2ccc([C@H](O)C(F)(F)F)c(OC)c12 [Example 7A, (S)-6-(cyclopropanecarboxamido)-4-((4-methoxy-5-(2,2,2-trifluoro-1-hydroxyethyl)pyrazolo[1,5-a]pyridin-3-yl)amino)-N-(methyl-d3)nicotinamide]
AUC ([3]; intravenous, 1 mg/kg): 317 ng·h/mL | Vd ([3]; intravenous, 1 mg/kg): 3.3 L/kg | clearance ([3]; intravenous, 1 mg/kg): 53.2 mL/min/kg | half-life ([3]; intravenous, 1 mg/kg): 0.84 h | AUC ([3]; oral, 10 mg/kg): 258 ng·h/mL | Cmax ([3]; oral, 10 mg/kg): 31.3 ng/mL | bioavailability ([3]; oral, 10 mg/kg): 8.1% | half-life ([3]; oral, 10 mg/kg): 4.91 h | pIC50 [4]: 8.17 | pIC50 [5]: 8.04

[2H]C([2H])([2H])NC(=O)c1cnc(Nc2ccn(C)n2)cc1Nc1cnn2ccc([C@H](O)C(F)(F)F)c(OC)c12 [Example 21, (S)-4-((4-methoxy-5-(2,2,2-trifluoro-1-hydroxyethyl)pyrazolo[1,5-a]pyridin-3-yl)amino)-N-(methyl-d3)-6-((1-methyl-1H-pyrazol-3-yl)amino)nicotinamide]
pIC50 [5]: 7.84

[2H]C([2H])([2H])NC(=O)c1cnc(Nc2cc(C)nc(C)n2)cc1Nc1cnn2ccc([C@H](O)C(F)(F)F)c(OC)c12 [Example 25, (S)-6-((2,6-Dimethylpyrimidin-4-yl)amino)-4-((4-methoxy-5-(2,2,2-trifluoro-1-hydroxyethyl)pyrazolo[1,5-a]pyridin-3-yl)amino)-N-(methyl-d3)nicotinamide]
pIC50 [5]: 8.14

[2H]C([2H])([2H])NC(=O)c1cnc(NC(=O)C2CC2)cc1Nc1cnn2ccc([C@H](OC)C(F)(F)F)c(OC)c12 [Example 27, (S)-6-(cyclopropanecarboxamido)-4-((4-methoxy-5-(2,2,2-trifluoro-1-methoxyethyl)pyrazolo[1,5-a]pyridin-3-yl)amino)-N-(methyl-d3)nicotinamide]
pIC50 [5]: 8.22

[2H]C([2H])([2H])NC(=O)c1nnc(NC(=O)C2CC2)cc1Nc1cnn2ccc([C@H](O)C(F)(F)F)c(OC)c12 [Example 30, (S)-6-(cyclopropanecarboxamido)-4-((4-methoxy-5-(2,2,2-trifluoro-1-hydroxyethyl)pyrazolo[1,5-a]pyridin-3-yl)amino)-N-(methyl-d3)pyridazine-3-carboxamide]
pIC50 [5]: 8.17

COC(=O)c1cnc(NC(=O)C2CC2)cc1Nc1nn(C)c2ccc([C@H](OC)C(F)(F)F)c(OC)c12 [Example 45B, Methyl (S)-6-(cyclopropanecarboxamido)-4-((4-methoxy-1-methyl-5-(2,2,2-trifluoro-1-methoxyethyl)-1H-indazol-3-yl)amino)nicotinate]
half-life ([6]; Sprague-Dawley, rat, brain): 2.23 h | Kp ([6]; Sprague-Dawley, rat, brain): 0.96 | half-life [6, 7]: 2.28 h | AUC [6, 8]: 1280 ng·h/mL | AUC ([6]; brain): 1235 ng·h/g | brain exposure in Rats [6]: good brain exposure | pIC50 [4]: 8.46 | efflux ratio compared with the amide compounds 21,23,25,33,49A and BMS986165 [1]: lower efflux ratio numbers

COC(=O)c1cnc(NC(=O)C2CC2)cc1Nc1nn(C)c2ccc([C@H](O)C(F)(F)F)c(OC)c12 [Example 48A, Methyl (S)-6-(cyclopropanecarboxamido)-4-((4-methoxy-1-methyl-5-(2,2,2-trifluoro-1-hydroxyethyl)-1H-indazol-3-yl)amino)nicotinate]
half-life ([6]; Sprague-Dawley, rat, brain): 2.04 h | Kp ([6]; Sprague-Dawley, rat, brain): 0.19 | half-life [6, 7]: 1.62 h | AUC [6, 8]: 1530 ng·h/mL | AUC ([6]; brain): 288 ng·h/g | brain exposure in Rats [6]: good brain exposure | pIC50 [4]: 9.13 | efflux ratio compared with the amide compounds 21,23,25,33,49A and BMS986165 [1]: lower efflux ratio numbers | pIC50 [2]: > 10.21

[2H]C([2H])([2H])NC(=O)c1cnc(NC(=O)C2CC2)cc1Nc1nn(C)c2ccc([C@H](O)C(F)(F)F)c(OC)c12 [Example 49A, (S)-6-(cyclopropanecarboxamido)-4-((4-methoxy-1-methyl-5-(2,2,2-trifluoro-1-hydroxyethyl)-1H-indazol-3-yl)amino)-N-(methyl-d3)nicotinamide]
AUC ([3]; intravenous, 2 mg/kg): 904 ng·h/mL | Vd ([3]; intravenous, 2 mg/kg): 2.2 L/kg | clearance ([3]; intravenous, 2 mg/kg): 38.2 mL/min/kg | half-life ([3]; intravenous, 2 mg/kg): 1.04 h | AUC ([3]; oral, 10 mg/kg): 418 ng·h/mL | Cmax ([3]; oral, 10 mg/kg): 74.2 ng/mL | bioavailability ([3]; oral, 10 mg/kg): 9.25% | half-life ([3]; oral, 10 mg/kg): 3.14 h | pIC50 [2]: > 10.21

[2H]C([2H])([2H])O[C@@H](c1ccc2c(c(Nc3cc(NC(=O)C4CC4)ncc3C(=O)OC)nn2C)c1OC)C(F)(F)F [Example 50B, Methyl (S)-6-(cyclopropanecarboxamido)-4-((4-methoxy-1-methyl-5-(2,2,2-trifluoro-1-(methoxy-d3)ethyl)-1H-indazol-3-yl)amino)nicotinate]
pIC50 [4]: 8.43

[2H]C([2H])([2H])NC(=O)c1cnc(NC(=O)C2CC2)cc1Nc1nn(C)c2ccc([C@H](OC([2H])([2H])[2H])C(F)(F)F)c(OC)c12 [Example 55A, (S)-6-(cyclopropanecarboxamido)-4-((4-methoxy-1-methyl-5-(2,2,2-trifluoro-1-(methoxy-d3)ethyl)-1H-indazol-3-yl)amino)-N-(methyl-d3)nicotinamide]
AUC ([3]; intravenous, 3 mg/kg): 3650 ng·h/mL | Vd ([3]; intravenous, 3 mg/kg): 2.05 L/kg | clearance ([3]; intravenous, 3 mg/kg): 13.6 mL/min/kg | half-life ([3]; intravenous, 3 mg/kg): 2.56 h | AUC ([3]; oral, 5 mg/kg): 2950 ng·h/mL | Cmax ([3]; oral, 5 mg/kg): 409 ng/mL | bioavailability ([3]; oral, 5 mg/kg): 48.6% | half-life ([3]; oral, 5 mg/kg): 2.67 h | pIC50 [2]: 9.72
